# Reference: publication PMC10222378 (Pharmaceuticals, 2023)
# Values joined by “and” are separate entries in the source; they are usually repeats but may differ in a detail not shown here. Equal entries are not always repeated. “Also recorded” adds a separate entry of the source. Where two headings read alike, the source gives them in different places.
# Tests used:
# hKV1.1 [1] = biological target: T1, hKV1.1 (Homo sapiens, UniProt Q09470); assay: Whole-cell patch clamp on hKV1.1 in CHO cells; assay type: cell-based; parameters: host or cells: CHO cells, transient; conditions: estimated from single concentration (200 μM), bimolecular interaction assumed, n = 5, read-out: estimated Kd
# T1 sequence (Q09470 whole entry): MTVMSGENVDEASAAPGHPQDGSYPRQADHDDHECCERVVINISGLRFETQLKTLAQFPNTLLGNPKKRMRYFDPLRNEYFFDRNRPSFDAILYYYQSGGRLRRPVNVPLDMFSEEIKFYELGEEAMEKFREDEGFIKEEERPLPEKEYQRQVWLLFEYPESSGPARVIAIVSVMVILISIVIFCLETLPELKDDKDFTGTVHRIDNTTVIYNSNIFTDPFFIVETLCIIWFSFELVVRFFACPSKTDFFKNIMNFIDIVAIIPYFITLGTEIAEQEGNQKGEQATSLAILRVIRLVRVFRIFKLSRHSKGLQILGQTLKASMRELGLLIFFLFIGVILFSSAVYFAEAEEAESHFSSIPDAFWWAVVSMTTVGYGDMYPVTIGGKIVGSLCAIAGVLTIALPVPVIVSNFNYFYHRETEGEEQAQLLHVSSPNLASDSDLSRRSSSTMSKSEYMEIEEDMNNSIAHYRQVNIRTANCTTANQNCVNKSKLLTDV
# Text: (§1) Pulses were delivered every 30 s. […] […]. Red dashed line indicates no effect.
# (§2) In general, the holding potential was −120 mV.
# (§3) […]. […] […].
# (§4) […]. All data are presented as means ± SEM.
# hKV1.5 = biological target: T2, hKV1.5 (Homo sapiens, UniProt P22460); assay: Whole-cell patch clamp on hKV1.5 in CHO cells; assay type: cell-based; conditions: estimated from single concentration (200 μM), bimolecular interaction assumed, n = 4, read-out: estimated Kd
# T2 construct: EYFP (pEYFP vector); expressed in transfected cells; host or cells: CHO cells, transient
# Text: as §1, §2, §3, §4
# hKCa3.1 = biological target: T3, hKCa3.1 (Homo sapiens, UniProt O15554); assay: Whole-cell patch clamp on hKCa3.1 in CHO cells; assay type: cell-based
# T3 construct: expressed in transfected cells; host or cells: CHO cells, transient
# Text: as §1, §2, §3, §4
# [2] = test system: hKV1.1, hKV1.4-IR, hKV1.5, hKV10.1, hKV11.1, hKCa3.1, hNaV1.4, hNaV1.5; assay: in vitro; conditions: human
# Method: (A–D) Currents were evoked from holding potentials of –100 mV by depolarizations to +50 mV for the time interval indicated on the panels. […] (E) hKV11.1 currents were measured with a voltage step from a holding potential of –80 mV to +20 mV, followed by a step to –40 mV, during which the peak current was measured. Pulses were delivered every 30 s. […] Red dashed line indicates no effect. Bars represent the mean of 3–8 independent measurements; error bars indicate the SEM.
# hNaV1.5 = biological target: T4, hNaV1.5 (Homo sapiens, UniProt Q14524); assay: Whole-cell patch clamp on hNaV1.5 in CHO cells; assay type: cell-based; conditions: estimated from single concentration (200 μM), bimolecular interaction assumed, n = 6, read-out: estimated Kd
# T4 construct: expressed in transfected cells; host or cells: CHO cells, transient
# Text: as §1, §2, §3, §4
# hKV1.3 [3] = biological target: T5, hKV1.3 (Homo sapiens, UniProt P22001); assay: Whole-cell patch clamp on hKV1.3 in activated human lymphocytes; assay type: cell-based; parameters: endogenous in cells
# T5 sequence (P22001 whole entry): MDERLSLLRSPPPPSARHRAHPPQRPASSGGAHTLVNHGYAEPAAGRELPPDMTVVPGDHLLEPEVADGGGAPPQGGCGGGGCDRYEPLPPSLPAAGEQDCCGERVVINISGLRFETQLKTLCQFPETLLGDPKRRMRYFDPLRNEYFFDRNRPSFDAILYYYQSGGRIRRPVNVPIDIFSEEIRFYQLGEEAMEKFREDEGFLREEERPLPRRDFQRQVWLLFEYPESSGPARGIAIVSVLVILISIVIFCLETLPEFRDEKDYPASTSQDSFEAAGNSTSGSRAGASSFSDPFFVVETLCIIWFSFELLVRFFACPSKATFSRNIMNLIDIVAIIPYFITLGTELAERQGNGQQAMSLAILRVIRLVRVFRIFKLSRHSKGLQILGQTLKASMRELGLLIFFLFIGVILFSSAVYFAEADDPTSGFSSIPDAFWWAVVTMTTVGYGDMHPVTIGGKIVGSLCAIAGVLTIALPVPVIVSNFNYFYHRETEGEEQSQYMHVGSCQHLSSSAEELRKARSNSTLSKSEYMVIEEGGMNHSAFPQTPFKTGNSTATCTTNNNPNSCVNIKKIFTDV
# Text: The essential role of voltage-gated KV1.3 channels in T cell activation and proliferation is well-documented, so we tested whether the proliferation was suppressed in part via a KV1.3 blockade. […]. The open probability of the channel at +50 mV is maximal, and the relatively short duration of the depolarizing periods prevented inactivation. The time between voltage pulses was set to 15 s to avoid the cumulative inactivation of hKV1.3 channels. Under the given experimental conditions (i.e., the voltage protocol used and the lack of Ca^2+ in the pipette solution), the whole-cell currents were conducted exclusively by hKV1.3 channels. […]. Human peripheral blood […] (PBMCs) were isolated from venous blood obtained from anonymized healthy donors. The peripheral blood mononuclear cells were isolated by Histopaque1077 (Sigma-Aldrich Hungary, Budapest, Hungary) density gradient centrifugation. The cells obtained were resuspended in Roswell Park Memorial Institute (RPMI) 1640 medium (Gibco, Cat# 11875085) containing 10% fetal calf serum (FCS, Sigma-Aldrich, St. Louis, MO, USA), 100 μg/mL penicillin, 100 μg/mL streptomycin, and 2 mM L-glutamine, seeded in a 24-well culture plate at a density of 5–6 × 10^5 cells/mL, and grown in a 5% CO2 incubator at 37 °C for 3–5 days. Phytohemagglutinin A (PHA, Sigma-Aldrich, St. Louis, MO, USA) was also added at a concentration of 8–12 μg/mL to the medium to amplify the expression level of KV1.3. CHO cells and PBMCs were gently washed twice with 2 mL of ECS (see below) for the patch clamp experiments. hKV1.3 currents were recorded on activated lymphocytes 3 to 4 days after activation.
# as §2, §3, §4
# To examine the binding kinetics, RCF was plotted as a function of time. The association time constant (τon) was determined by fitting the data points with a single exponential function, RCF=RCF0×e^−t/τon+C where RCF0 is the RCF value before the addition of the drug, and C is a constant term.
# hKV1.4-IR = hKV1.4-IR (Homo sapiens, UniProt P22459); assay: Whole-cell patch clamp on hKV1.4-IR in CHO cells; assay type: cell-based; conditions: estimated from single concentration (200 μM), bimolecular interaction assumed, n = 6, read-out: estimated Kd
# Chain of hKV1.4-IR (P22459 149-653 limits assumed): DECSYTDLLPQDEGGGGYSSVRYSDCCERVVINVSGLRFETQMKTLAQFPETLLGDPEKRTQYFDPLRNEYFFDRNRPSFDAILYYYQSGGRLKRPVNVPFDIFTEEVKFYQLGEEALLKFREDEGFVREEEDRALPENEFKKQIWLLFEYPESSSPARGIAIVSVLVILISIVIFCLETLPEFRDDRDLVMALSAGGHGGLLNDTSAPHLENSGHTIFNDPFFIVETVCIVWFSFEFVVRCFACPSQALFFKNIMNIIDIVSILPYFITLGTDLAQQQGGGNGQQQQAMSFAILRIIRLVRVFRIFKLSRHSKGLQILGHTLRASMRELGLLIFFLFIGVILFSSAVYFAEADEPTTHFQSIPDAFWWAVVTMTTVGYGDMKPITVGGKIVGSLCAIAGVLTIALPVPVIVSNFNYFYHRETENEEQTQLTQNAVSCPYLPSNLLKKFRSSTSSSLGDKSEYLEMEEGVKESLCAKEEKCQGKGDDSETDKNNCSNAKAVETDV
# Text: as §1, §2, §3, §4
# human lymphocytes = assay: CFSE lymphocyte proliferation assay after PHA activation; assay type: cell-based; conditions: 200 μM ClGBI
# Method: In this method, following the loading of cells with CFSE dye, each round of cell division is apparent by the reduced dye content and consequent lower fluorescence intensity of the daughter cells. […] Peripheral blood mononuclear cells (PBMCs) were isolated from the heparinized blood of healthy donors (n = 3) using the Ficoll–Hypaque separation method. […] The cells were grown in a humidified chamber at 37 °C and 5% CO2 for 6 days. As a negative control, unstimulated CFSE-labeled PBMCs were cultured in the same condition. […] After 6 days of proliferation, the CFSE-labeled cells were collected and analyzed by flow cytometry in an ACEA NovoCyte 2000R cytometer (Agilent, Santa Clara, CA, USA).
# hKV10.1 = biological target: T6, hKV10.1 (Homo sapiens, UniProt O95259); assay: Whole-cell patch clamp on hKV10.1 in CHO cells; assay type: cell-based; conditions: estimated from single concentration (200 μM), bimolecular interaction assumed, n = 5, read-out: estimated Kd
# T6 construct: host or cells: CHO cells, transient, co-transfected with a separate GFP plasmid
# T6 sequence (O95259 1-989): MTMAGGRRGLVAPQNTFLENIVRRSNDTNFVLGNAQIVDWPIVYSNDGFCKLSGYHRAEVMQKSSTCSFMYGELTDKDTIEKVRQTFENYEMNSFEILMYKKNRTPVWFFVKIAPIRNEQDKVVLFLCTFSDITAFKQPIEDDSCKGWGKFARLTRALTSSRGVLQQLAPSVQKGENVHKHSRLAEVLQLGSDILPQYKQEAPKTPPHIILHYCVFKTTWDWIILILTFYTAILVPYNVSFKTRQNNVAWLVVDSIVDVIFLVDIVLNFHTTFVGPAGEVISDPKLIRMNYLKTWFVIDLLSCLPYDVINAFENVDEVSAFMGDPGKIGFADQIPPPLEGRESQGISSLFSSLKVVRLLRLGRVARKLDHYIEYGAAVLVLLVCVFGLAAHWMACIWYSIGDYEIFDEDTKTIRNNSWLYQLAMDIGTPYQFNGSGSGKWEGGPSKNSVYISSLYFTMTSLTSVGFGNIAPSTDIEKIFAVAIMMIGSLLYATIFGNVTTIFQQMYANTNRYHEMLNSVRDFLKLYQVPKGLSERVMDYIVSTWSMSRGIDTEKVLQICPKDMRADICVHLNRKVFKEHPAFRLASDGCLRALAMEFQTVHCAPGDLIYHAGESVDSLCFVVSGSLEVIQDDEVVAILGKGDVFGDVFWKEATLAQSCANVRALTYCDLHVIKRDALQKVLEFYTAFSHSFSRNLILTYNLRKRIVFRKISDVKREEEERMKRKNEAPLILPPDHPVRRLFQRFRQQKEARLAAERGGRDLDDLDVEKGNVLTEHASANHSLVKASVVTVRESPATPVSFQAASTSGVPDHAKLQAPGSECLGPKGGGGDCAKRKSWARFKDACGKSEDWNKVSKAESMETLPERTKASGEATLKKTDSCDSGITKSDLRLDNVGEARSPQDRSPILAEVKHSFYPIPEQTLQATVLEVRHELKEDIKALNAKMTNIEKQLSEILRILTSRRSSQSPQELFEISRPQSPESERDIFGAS
# Text: as §1, §2, §3, §4
# [4] = biological target: voltage-gated proton (H+) channel (HV1); parameters: method as in PMID 24912149; conditions: known HV1 inhibitor, value quoted in abstract; amphibian expression system; cited from earlier work
# hNaV1.4 = biological target: T7, hNaV1.4 (Homo sapiens, UniProt P35499); assay: Whole-cell patch clamp on hNaV1.4 stably expressed in HEK293 cells; assay type: cell-based; conditions: estimated from single concentration (200 μM), bimolecular interaction assumed, n = 4, read-out: estimated Kd
# T7 construct: expressed in transfected cells
# T7 sequence (P35499 whole entry): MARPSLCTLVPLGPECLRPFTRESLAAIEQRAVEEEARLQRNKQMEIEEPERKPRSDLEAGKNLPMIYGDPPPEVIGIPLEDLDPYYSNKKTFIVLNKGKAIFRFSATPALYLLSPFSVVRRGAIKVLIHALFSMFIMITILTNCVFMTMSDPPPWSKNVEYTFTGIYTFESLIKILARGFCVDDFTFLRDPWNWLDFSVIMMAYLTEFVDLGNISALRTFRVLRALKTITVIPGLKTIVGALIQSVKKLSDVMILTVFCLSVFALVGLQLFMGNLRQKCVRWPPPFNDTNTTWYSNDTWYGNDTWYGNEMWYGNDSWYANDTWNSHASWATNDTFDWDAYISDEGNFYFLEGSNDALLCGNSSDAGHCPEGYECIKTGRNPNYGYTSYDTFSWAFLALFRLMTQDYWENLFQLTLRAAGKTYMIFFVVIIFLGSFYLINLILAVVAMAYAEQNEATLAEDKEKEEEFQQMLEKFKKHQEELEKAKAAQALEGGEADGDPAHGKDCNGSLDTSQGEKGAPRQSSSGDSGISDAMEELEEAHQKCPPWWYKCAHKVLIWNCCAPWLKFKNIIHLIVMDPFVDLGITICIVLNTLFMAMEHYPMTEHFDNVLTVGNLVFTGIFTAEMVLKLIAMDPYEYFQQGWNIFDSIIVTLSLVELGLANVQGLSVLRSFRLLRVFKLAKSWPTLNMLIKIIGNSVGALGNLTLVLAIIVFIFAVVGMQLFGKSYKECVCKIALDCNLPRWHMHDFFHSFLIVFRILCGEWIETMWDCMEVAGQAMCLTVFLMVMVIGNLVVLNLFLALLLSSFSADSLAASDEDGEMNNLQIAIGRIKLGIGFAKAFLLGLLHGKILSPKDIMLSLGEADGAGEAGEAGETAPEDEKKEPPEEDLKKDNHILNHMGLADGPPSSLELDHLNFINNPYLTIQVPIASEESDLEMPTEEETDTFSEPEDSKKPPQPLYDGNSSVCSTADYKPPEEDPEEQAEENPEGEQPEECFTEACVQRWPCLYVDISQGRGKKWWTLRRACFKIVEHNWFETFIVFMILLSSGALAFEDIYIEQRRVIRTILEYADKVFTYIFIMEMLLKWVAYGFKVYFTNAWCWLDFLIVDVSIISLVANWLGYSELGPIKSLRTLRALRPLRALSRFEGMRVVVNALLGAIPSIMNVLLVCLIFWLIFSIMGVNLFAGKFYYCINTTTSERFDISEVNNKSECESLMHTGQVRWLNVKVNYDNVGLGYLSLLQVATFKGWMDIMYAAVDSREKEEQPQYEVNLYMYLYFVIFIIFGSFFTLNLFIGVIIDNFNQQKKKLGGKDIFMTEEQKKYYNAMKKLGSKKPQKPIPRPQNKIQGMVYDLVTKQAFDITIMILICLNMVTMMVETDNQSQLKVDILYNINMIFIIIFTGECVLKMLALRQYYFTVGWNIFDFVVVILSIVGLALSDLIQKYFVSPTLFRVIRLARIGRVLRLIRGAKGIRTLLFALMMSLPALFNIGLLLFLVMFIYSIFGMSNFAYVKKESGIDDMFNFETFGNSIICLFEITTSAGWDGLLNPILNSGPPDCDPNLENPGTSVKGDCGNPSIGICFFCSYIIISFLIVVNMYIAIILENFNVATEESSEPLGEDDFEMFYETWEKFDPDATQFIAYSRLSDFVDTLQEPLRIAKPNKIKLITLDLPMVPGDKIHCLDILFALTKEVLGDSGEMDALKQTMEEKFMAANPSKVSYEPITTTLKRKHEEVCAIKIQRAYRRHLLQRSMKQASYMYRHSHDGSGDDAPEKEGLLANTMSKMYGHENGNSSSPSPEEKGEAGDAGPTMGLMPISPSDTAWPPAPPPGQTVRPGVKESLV
# Text: as §1, §2, §3, §4
# hKV11.1 (hERG) = hKV11.1 (hERG) (Homo sapiens, UniProt Q12809); assay: in vitro; conditions: HEK293 cells stably expressing hKV11.1 (hERG), pH 7.35
# Chain of hKV11.1 (hERG) (Q12809 whole entry): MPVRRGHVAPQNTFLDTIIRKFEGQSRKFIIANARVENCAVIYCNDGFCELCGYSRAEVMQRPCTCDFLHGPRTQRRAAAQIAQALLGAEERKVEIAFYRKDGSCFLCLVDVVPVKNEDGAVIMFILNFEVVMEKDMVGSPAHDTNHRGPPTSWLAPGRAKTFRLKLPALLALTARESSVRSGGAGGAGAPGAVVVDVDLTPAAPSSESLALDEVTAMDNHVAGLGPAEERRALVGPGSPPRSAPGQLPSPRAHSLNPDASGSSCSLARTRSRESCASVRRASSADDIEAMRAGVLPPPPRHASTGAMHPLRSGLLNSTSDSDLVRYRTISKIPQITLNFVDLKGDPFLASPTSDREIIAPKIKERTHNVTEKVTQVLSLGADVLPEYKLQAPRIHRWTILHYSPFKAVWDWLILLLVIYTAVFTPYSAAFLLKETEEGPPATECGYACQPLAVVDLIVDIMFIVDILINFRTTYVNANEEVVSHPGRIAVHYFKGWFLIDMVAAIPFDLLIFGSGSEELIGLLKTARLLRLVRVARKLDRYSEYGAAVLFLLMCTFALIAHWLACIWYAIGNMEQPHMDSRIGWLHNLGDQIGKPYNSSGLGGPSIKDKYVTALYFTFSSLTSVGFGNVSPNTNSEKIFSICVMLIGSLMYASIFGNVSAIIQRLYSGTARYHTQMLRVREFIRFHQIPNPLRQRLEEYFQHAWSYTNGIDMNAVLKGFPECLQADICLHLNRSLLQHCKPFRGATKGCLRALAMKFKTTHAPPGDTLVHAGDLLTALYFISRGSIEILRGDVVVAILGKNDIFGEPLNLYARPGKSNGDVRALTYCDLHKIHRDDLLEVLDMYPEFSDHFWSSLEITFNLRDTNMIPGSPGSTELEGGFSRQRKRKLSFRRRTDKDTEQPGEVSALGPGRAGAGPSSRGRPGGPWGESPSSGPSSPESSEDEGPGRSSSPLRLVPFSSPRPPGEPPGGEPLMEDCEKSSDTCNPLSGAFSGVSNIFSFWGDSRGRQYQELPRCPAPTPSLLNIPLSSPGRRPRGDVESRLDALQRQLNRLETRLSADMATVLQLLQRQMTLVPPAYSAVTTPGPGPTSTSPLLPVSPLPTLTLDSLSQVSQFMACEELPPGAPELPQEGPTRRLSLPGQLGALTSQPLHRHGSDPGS
# hKV1.3 [5] = biological target: T5, hKV1.3; conditions: read-out: Kd (concentration of positive control equivalent to its Kd), no reference given; cited from earlier work
# hKV1.1 [6] = biological target: T1, hKV1.1; conditions: read-out: Kd (concentration of positive control equivalent to its Kd), no reference given; cited from earlier work
smiles,measurement,setting,value
"N=C(N)Nc1nc2ccc(Cl)cc2[nH]1 [ClGBI, 5-chloro-2-guanidinobenzimidazole]",potency estimated from few doses,hKV1.1 [1],324 ± 13.1 µM
same,potency estimated from few doses,hKV1.5,310 ± 43.6 µM
same,inhibition of KCa3.1,hKCa3.1; 200 μM ClGBI,inhibited KCa3.1 to a small extent
same,potency estimated from few doses,"hKCa3.1; CHO, estimated from single concentration (200 μM), bimolecular interaction assumed, n = 5, read-out: estimated Kd",894 ± 134 µM
same,Kd,[2],12 to 894 µM
same,potency estimated from few doses,hNaV1.5,187 ± 35.7 µM
same,time to reach block saturation,hKV1.3 [3]; 200 μM ClGBI,50 to 100 s
same,reduction in current amplitude,"hKV1.3 [3]; 200 μM ClGBI, equilibrium block",~ 75%
same,remaining current fraction (RCF),"hKV1.3 [3]; 200 μM ClGBI, equilibrium block, n = 9",0.25 ± 0.01
same,association time constant τon,"hKV1.3 [3]; 200 μM ClGBI, single exponential fit, n = 3",22.1 ± 2.7 s
same,reversibility of block on washout,"hKV1.3 [3]; after 200 μM ClGBI, perfusion with ClGBI-free ECS",complete recovery from block; also recorded: complete recovery from current inhibition
same,Hill coefficient nH,hKV1.3 [3]; two-parameter Hill fit of RCF dose-response,1.1 ± 0.07
same,Kd,"hKV1.3 [3]; two-parameter Hill fit of RCF dose-response, human lymphocytes",72.4 µM and ~72 µM
same,potency estimated from few doses,hKV1.4-IR,188 ± 38 µM
same,effect on lymphocyte proliferation,human lymphocytes,completely blocked; also recorded: significant suppression
same,potency estimated from few doses,hKV10.1,77.5 ± 14.2 µM
same,Kd,[4],~26 µM
same,potency estimated from few doses,hNaV1.4,591 ± 123 µM
same,potency estimated from few doses,hKV11.1 (hERG),12 ± 2.1 µM
"CC[N+](CC)(CC)CC [TEA^+, tetraethylammonium]",Kd,hKV1.3 [5],10000 µM
same,Kd,hKV1.1 [6],300 µM
